Holding throughout (format): cell-based
For experiment [1], the system named is LPA-induced MCP-1 in NRK-49F cells. In words: LPA-induced MCP-1 AlphaLISA assay. The settings on record: Rattus norvegicus, final LPA 10 μM, 7 hours; for Emax: read-out: Maximum Inhibition. A digest of the protocol: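 NRK-49F rat fibroblasts, serum-starved overnight, pretreated with compound for 30 min at 37 °C (1% DMSO final), then stimulated with 10 μM LPA final. MCP-1 in the supernatant was measured by mouse/rat CCL2 AlphaLISA. IC50 values came from four-parameter logistic fits of the ratio data.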

Experiment [2] concerns the target T1, LPAR1 (Homo sapiens, UniProt Q92633).
T1 construct: host or cells: U2OS
In words: IP-One HTRF Assay. The settings on record: U2OS cells stably expressing LPAR1, LPA stimulation, IP-One Tb HTRF kit; for Emax: read-out: Maximum Inhibition. On the procedure:
U2OS cells stably expressing LPAR1 (Life Technologies #K1519A) were plated at 20000 cells/well in growth medium (McCoy's 5A(Life Technologies #16600-082)) with 10% dFBS (Life Technologies #26400-036), 0.1 mM non-essential amino acids, 25 mM HEPES, 1 mM sodium pyruvate, 1% penicillin/streptomycin, 50 μg/mL hygromycin, and 100 μg/mL Geneticin® in tissue culture treated 384-well white plates (Greiner #781080) in humidified 5% CO2 at 37° C. overnight. On the day of the assay, culture medium was replaced with 30 μL/well of McCoy's 5A with 0.1% BSA. Cells were incubated in humidified 5% CO2 at 37° C. for 3 more hours. Compounds were 3-fold serial diluted from 2 mM for 11-points using dimethyl sulfoxide. 1 μL of compound in DMSO was diluted in 50 μL stimulation buffer from an IP-One Tb HTRF kit (Cisbio #62IPAPEB) immediately before assay. 15 μL/well of 1.33× compound in stimulation buffer was added to cells after removal of culture medium. After 20 minutes of incubation at 37° C., 5 μL/well of 8 μM LPA diluted in stimulation buffer with 0.1% fatty acid free BSA was added to cells. […]. To EC100 wells were added 4×20 μM LPA. To the cells were added 5 μL/well IP1-d2 conjugate and 5 μLwell IP1-K antibody after 2 hours of incubation at 37° C. Cells were incubated at room temperature for 1 hour (protected from light). The plate was then read at 665 nm and 615 nm using an EnVision® Multilabel Plate Reader. IC50 values were calculated from curve fits of the ratio data using a four-parameter logistic Hill equation (Assay Explorer 3.3 Client).

For experiment [3], the target named is T1, LPAR1. The experiment can be described thus: LPAR1 FLIPR Assay. The settings on record: U2OS cells stably expressing LPAR1, LPA (EC80), Calcium 6 FLIPR dye; for Emax: read-out: Maximum Inhibition. A digest of the protocol: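 Calcium flux read-out (515-575 nm, FLIPR) in LPAR1-expressing U2OS cells after LPA challenge at EC80, given 3 min after compound addition; cells carried Calcium 6 dye loaded 2 h at 37° C. Eleven-point 3-fold dilutions were fitted with a four-parameter Hill equation for IC50.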

pIC50: −log10 of the molar value. Some results are limits rather than exact numbers.

T1 sequence (Q92633 whole entry): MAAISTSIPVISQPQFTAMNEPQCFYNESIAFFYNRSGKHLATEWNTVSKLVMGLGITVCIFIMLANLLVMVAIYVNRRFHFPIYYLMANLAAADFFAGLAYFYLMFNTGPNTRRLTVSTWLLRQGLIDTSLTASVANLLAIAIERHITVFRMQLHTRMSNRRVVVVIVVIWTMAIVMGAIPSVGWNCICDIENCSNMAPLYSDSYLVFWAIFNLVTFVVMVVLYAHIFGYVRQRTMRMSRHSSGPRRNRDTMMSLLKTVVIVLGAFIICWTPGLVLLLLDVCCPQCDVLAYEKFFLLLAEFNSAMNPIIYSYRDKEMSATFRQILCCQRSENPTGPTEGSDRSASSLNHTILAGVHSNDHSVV

Regarding `COc1cc(C(=O)N(CCCc2ccccc2)CC(=O)NC2(C(=O)O)Cc3ccccc3C2)cc(OC)c1C` [Example 1, 2-{[N-(3,5-dimethoxy-4-methylbenzoyl)-N-(3-phenylpropyl)glycyl]amino}-2,3-dihydro-1H-indene-2-carboxylic Acid], the results for the pIC50 (in experiment [1]; on LPAR1 [2]; at LPAR1 [3]) were 5.81, 5.92 and 7.35, respectively. For the same molecule, the values for the Emax (in experiment [1]; at LPAR1 [2]; at LPAR1 [3]) were 66%, 75% and 74%, respectively.
With `COc1cc(C(=O)N(CCCc2ccccc2)CC(=O)NC2(C(=O)O)CCCCC2)cc(OC)c1C` [Example 2, 1-{[N-(3,5-dimethoxy-4-methylbenzoyl)-N-(3-phenylpropyl)glycyl]amino}cyclohexane-1-carboxylic Acid], on LPAR1 [2], the pIC50 was 5.32 and the Emax worked out at 84%. For the same molecule, on LPAR1 [3], the pIC50 was 6.94 and the Emax is 72%.
For the molecule `COc1cc(C(=O)N(CCCCCC(=O)O)CCCc2ccccc2)cc(OC)c1C` [Example 5, 6-[(3,5-dimethoxy-4-methylbenzoyl)(3-phenylpropyl)amino]hexanoic Acid], the pIC50 was 6.54 in experiment [1], 6.50 at LPAR1 [2] and 7.57 at LPAR1 [3]. Further, the Emax in experiment [1] worked out at 97%; on LPAR1 [2], 105%; at LPAR1 [3], 97%.
`COc1cc(C(=O)N(CCCCC(=O)O)CCCc2cccc(C)c2)cc(OC)c1C` [Example 11, 5-{(3,5-dimethoxy-4-methylbenzoyl)[3-(3-methylphenyl)propyl]amino}pentanoic Acid]: the pIC50 in experiment [1] was 6.61; on LPAR1 [2] it was 6.60; on LPAR1 [3], 7.82. For the same molecule, the results for the Emax (in experiment [1]; on LPAR1 [2]; at LPAR1 [3]) were 91%, 88% and 96%, respectively.
Consider `COc1cc(C(=O)N(CCCCC(=O)O)CCCc2ccc(C)s2)cc(OC)c1C` [Example 41, 5-{(3,5-dimethoxy-4-methylbenzoyl)[3-(5-methylthiophen-2-yl)propyl]amino}pentanoic Acid], for which the pIC50 in experiment [1] was 6.47; against LPAR1 [2], 6.72; on LPAR1 [3], 7.66. Moreover, the Emax was 88% in experiment [1], 100% at LPAR1 [2] and 97% at LPAR1 [3].
With `COc1cc(C(=O)N(CCCc2ccccc2)CCCC(C)C(=O)O)cc(OC)c1C` (stereo not shown) [Example 54, 5-[(3,5-dimethoxy-4-methylbenzoyl)(3-phenylpropyl)amino]-2-methylpentanoic Acid], the pIC50 in experiment [1] is 7.26; on LPAR1 [2], 7.66; at LPAR1 [3] it was 7.82. The results for the Emax (in experiment [1]; at LPAR1 [2]; at LPAR1 [3]) were 96%, 91% and 100%, respectively.
Take `COc1cc(C(=O)N(CCCc2ccccc2)CCOC(C)(C)C(=O)O)cc(OC)c1C` [Example 55, 2-{2-[(3,5-dimethoxy-4-methylbenzoyl)(3-phenylpropyl)amino]ethoxy}-2-methylpropanoic Acid]: the pIC50 in experiment [1] is 6.95; at LPAR1 [2], 7.05; on LPAR1 [3], 7.66. Moreover, the results for the Emax (in experiment [1]; on LPAR1 [2]; at LPAR1 [3]) were 93%, 98% and 100%, respectively.
`COc1cc(C(=O)N(CCCc2ccccc2)CCOCCC(=O)O)cc(OC)c1C` [Example 56, 3-{2-[(3,5-dimethoxy-4-methylbenzoyl)(3-phenylpropyl)amino]ethoxy}propanoic Acid]: the pIC50 is 5.91 in experiment [1], 6.37 against LPAR1 [2] and 7.68 on LPAR1 [3]. Further, the Emax in experiment [1] came to 79%; on LPAR1 [2], 100%; at LPAR1 [3] it was 95%.
On to `COc1cc(C(=O)N(CCCc2ccccc2)CCOCC2(C(=O)O)CC2)cc(OC)c1C` [Example 59, 1-({2-[(3,5-dimethoxy-4-methylbenzoyl)(3-phenylpropyl)amino]ethoxy}methyl)cyclopropane-1-carboxylic Acid], for which the results for the pIC50 (in experiment [1]; against LPAR1 [2]; at LPAR1 [3]) were 6.90, 6.35 and 7.64, respectively. For the same molecule, the Emax in experiment [1] was found to be 93%; on LPAR1 [2], 88%; at LPAR1 [3], 100%.
Regarding `COc1cc(C(=O)N(CCCc2ccccc2)CCSCC2(C(=O)O)CC2)cc(OC)c1C` [Example 61, 1-[({2-[(3,5-dimethoxy-4-methylbenzoyl)(3-phenylpropyl)amino]ethyl}sulfanyl)methyl]cyclopropane-1-carboxylic Acid], the values for the pIC50 (in experiment [1]; at LPAR1 [2]; at LPAR1 [3]) were 6.83, 6.94 and 7.70, respectively. Besides, the Emax in experiment [1] amounted to 92%; at LPAR1 [2], 85%; on LPAR1 [3], 98%.
Turning to `CNS(=O)(=O)NC(=O)CCN(CCCc1ccccc1)C(=O)c1cc(OC)c(C)c(OC)c1` [Example 68, 3,5-dimethoxy-4-methyl-N-{3-[(methylsulfamoyl)amino]-3-oxopropyl}-N-(3-phenylpropyl)benzamide], the pIC50 against LPAR1 [2] was 4.88; on LPAR1 [3] it was 6.04. Moreover, the results for the Emax on LPAR1 [2] and at LPAR1 [3] were 67% and 52%, respectively.
As to `COc1cc(C(=O)N(CCCC(=O)O)CCCc2ccccc2)cc(OC)c1C` [Example 69, 4-[(3,5-dimethoxy-4-methylbenzoyl)(3-phenylpropyl)amino]butanoic Acid], the pIC50 in experiment [1] was 5.78; on LPAR1 [2], 5.42; at LPAR1 [3] it was less than 4.52. Moreover, the Emax in experiment [1] came to 62%; at LPAR1 [2] it was 85%; on LPAR1 [3], 38%.
As to `CNS(=O)(=O)NC(=O)CCCCN(CCCc1ccccc1)C(=O)C1(c2ccc(OC)cc2)CC1` [Example 73, 1-(4-methoxyphenyl)-N-{5-[(methylsulfamoyl)amino]-5-oxopentyl}-N-(3-phenylpropyl)cyclopropane-1-carboxamide], the pIC50 in experiment [1] was 5.29; against LPAR1 [2], less than 4.52; at LPAR1 [3], 7.22. The figures for the Emax (in experiment [1]; on LPAR1 [2]; on LPAR1 [3]) were 79%, 44% and 65%, respectively.
Turning to `CNS(=O)(=O)NC(=O)CCCCN(CCCc1ccccc1)C(=O)c1cc(OC)cc(OC)c1` [Example 74, 3,5-dimethoxy-N-{5-[(methylsulfamoyl)amino]-5-oxopentyl}-N-(3-phenylpropyl)benzamide], the pIC50 in experiment [1] is 5.41; on LPAR1 [2] it was 5.93; at LPAR1 [3], 7.10. The Emax worked out at 77% in experiment [1], 63% on LPAR1 [2] and 67% on LPAR1 [3].
As to `COc1cc(OC)cc(C(=O)N(CCCCP(=O)(O)O)CCCc2ccccc2)c1` [Example 75, {4-[(3,5-dimethoxybenzoyl)(3-phenylpropyl)amino]butyl}phosphonic Acid], the pIC50 in experiment [1] was 5.49; against LPAR1 [2], 5.97; at LPAR1 [3] it was 7.70. In addition, the Emax in experiment [1] is 65%; on LPAR1 [2], 77%; on LPAR1 [3], 72%.
In the case of `CCOP(=O)(O)CCCCN(CCCc1ccccc1)C(=O)c1cc(OC)cc(OC)c1` [Example 76, ethyl hydrogen {4-[(3,5-dimethoxybenzoyl)(3-phenylpropyl)amino]butyl}phosphonate], the values for the pIC50 (in experiment [1]; against LPAR1 [2]; at LPAR1 [3]) were less than 5.00, 5.23 and 7.32, respectively. In addition, the figures for the Emax (in experiment [1]; on LPAR1 [2]; at LPAR1 [3]) were 36%, 65% and 76%, respectively.
`COc1cc(C(=O)N(CCCCC(=O)O)CCC(C)c2ccccc2)cc(OC)c1C` (stereo not shown) [Example 182, 5-[(3,5-dimethoxy-4-methylbenzoyl)(3-phenylbutyl)amino]pentanoic Acid]: the pIC50 in experiment [1] was 6.00; at LPAR1 [3], 7.33. In addition, the values for the Emax (in experiment [1]; on LPAR1 [3]) were 85% and 91%, respectively.
Consider `COc1cc(C(=O)N(CCCOC(=O)NS(C)(=O)=O)CCCc2ccccc2)cc(OC)c1C` [Example 186, 3-[(3,5-dimethoxy-4-methylbenzoyl)(3-phenylpropyl)amino]propyl (methanesulfonyl)carbamate], for which, in experiment [1], the pIC50 was 5.15 and the Emax worked out at 54%. Besides, on LPAR1 [3], the pIC50 was 7.19 and the Emax was determined as 83%.

These data come from patent US20190119200A1, “TERTIARY AMIDES AND METHOD OF USE” (AbbVie Inc., priority 2016, published 2019).
